From patent US5716994A, “Antitumor and antileukaemic substances, their preparation and pharmaceutical compositions containing them” (Rhone-Poulenc Rorer S.A., priority 1994, dated 1998)
Like-named read-outs stand apart in the source and are kept apart here.

Tests used:
[1] = test system: Tubulin, derived from pig brain; details: for effect on the polymerization of tubulin (in words): increase in the latent period, decrease in the rate of polymerization, lower turbidity in the stationary state; for IC50: read-out: concentration which inhibits by 50% the polymerization of tubulin, tubulin 8.5 μM, 37° C., 30 minutes, product 0.8 to 16 μM
From the text: The assembly of tubulin into microtubules results in an increase in the turbidity observed at 350 nm with the aid of spectrophotometer.

[2] = test system: murine leukaemia cell lines P388; details: p388 leukaemia cells
[3] = test system: resistant lines P388/DOX; details: p388 leukaemia cells

IC50 [1] [nM] | IC50 ([1]; listed as 3-(3-hydroxy-4-methoxybenzyl)-7-methylene-1-vinyl-2,3,3a,4,7,7a-hexahydroinden-4) [nM] | Structure (SMILES) | effect on the polymerization of tubulin (in words) [1] | cytotoxicity [2] | cytotoxicity [3]
 |  | C=CC1CC(Cc2ccc(OC)c(O)c2)c2c(O)ccc(C)c21 (stereo not drawn) [formula (II), 3-(3-hydroxy-4-methoxybenzyl)-4-hydroxy-7-methyl-1-vinylindan] | inhibition of the polymerization of tubulin | less than 1 μg/cm^3 | less than 1 μg/cm^3
< 5 | < 1 | C=CC1CC(Cc2ccc(OC)c(O)c2)C2C(=O)C=CC(=C)C12 (stereo not drawn) [formula (I), 3-(3-hydroxy-4-methoxybenzyl)-7-methylene-1-vinyl-2,3,3a,4,7,7a-hexahydroinden-4-one] | inhibition of the polymerization of tubulin |  | 
